Values after ≈ are worked out from the molar mass of the structure shown. Values joined by “and” are separate entries in the source; they are usually repeats but may differ in a detail not shown here. Identical values can stand only once.
What was measured:
HCT-8 [1] = test: Cytotoxicity against human HCT8 cells at 1.96 to 22.7 uM; assay type: cell-based; conditions: hct-8, 22.7 µM
Cryptosporidium parvum = test: Antiparasitic activity against Cryptosporidium parvum infected in human […] cells after 46 hrs by immunofluorescence method; assay type: functional, organism-based
HCT-8 [2] = test: Cytotoxicity against human HCT8 cells assessed as effect on cell viability at 25.69 to 37.22 uM; assay type: cell-based; conditions: hct-8, 37.22 µM
[3] = Cryptosporidium parvum, HCT-8, 46 h, read-out: IC50

Row | IC50 (Cryptosporidium parvum; [3]) [µg/mL] | IC50 (Cryptosporidium parvum; htc8) | Structure (SMILES) | Activity (HCT-8 [1]) | Activity (HCT-8 [2])
1 | 8.4 (≈ 24.1 µM) | Not Active | CCOC(=O)Cc1csc(NC(=O)c2ccccc2OC(C)=O)n1 | Non-toxic | –
2 | > 10 | Not Active | Cc1cnc(NC(=O)c2ccccc2O)s1 | Non-toxic | –
3 | > 10 | Not Active | O=C(Nc1nccs1)c1ccccc1O | Non-toxic | –
4 | 5 (≈ 19 µM) | Not Active | CC(=O)Oc1ccccc1C(=O)Nc1nncs1 | Non-toxic | –
5 | 6.4 (≈ 20.7 µM) | 9.2 µg/mL (≈ 29.7 µM) | CSc1nnc(NC(=O)c2ccccc2OC(C)=O)s1 | Non-toxic | Toxic
6 | 6.9 (≈ 23.1 µM) | Not Active | CS(=O)(=O)c1cnc(NC(=O)c2ccccc2O)s1 | Non-toxic | –
7 | 5.5 (≈ 19.7 µM) | Not Active | COc1ccccc1C(=O)Nc1ncc([N+](=O)[O-])s1 | Non-toxic | –
8 | 0.6 (≈ 2.15 µM) | 1 µg/mL (≈ 3.58 µM) | Cc1nc(NC(=O)c2ccccc2O)sc1[N+](=O)[O-] | Non-toxic | Toxic
9 | – | 2.6 µg/mL and 6 µg/mL | O=C(Nc1ncc(Cl)s1)c1ccccc1O | Non-toxic | Toxic
10 | – | – | Cc1ccc(O)c(C(=O)Nc2ncc(Cl)s2)c1 | Non-toxic | –
11 | 2.3 (≈ 8.56 µM) | 4.6 µg/mL (≈ 17.1 µM) | Cc1cccc(C(=O)Nc2ncc(Cl)s2)c1O | Non-toxic | Toxic
12 | – | – | Cc1ccc(C(=O)Nc2ncc(Cl)s2)c(O)c1 | Non-toxic | Toxic
13 | – | – | CC(=O)Oc1ccc(C)cc1C(=O)Nc1ncc(Cl)s1 | Non-toxic | Toxic
14 | – | – | CC(=O)Oc1c(C)cccc1C(=O)Nc1ncc(Br)s1 | Non-toxic | Toxic
15 | – | – | Cc1cccc(C(=O)Nc2ncc(Br)s2)c1O | Non-toxic | Toxic
16 | – | – | CC(=O)Oc1ccccc1C(=O)Nc1ncc(Br)s1 | Non-toxic | –
17 | – | 1.7 µg/mL and 4.4 µg/mL | CC(=O)Oc1ccc(C)cc1C(=O)Nc1ncc(Br)s1 | Non-toxic | Toxic
18 | – | – | CC(=O)Oc1cc(C)ccc1C(=O)Nc1ncc(Br)s1 | Non-toxic | –

Row | IC50 (Cryptosporidium parvum; [3]) [µg/mL] | IC50 (Cryptosporidium parvum; htc8) | Structure (SMILES) | Activity (HCT-8 [1]) | Activity (HCT-8 [2])
19 | – | 2.1 µg/mL and 4.8 µg/mL | CC(=O)Oc1ccccc1C(=O)Nc1nc(C)c(Br)s1 | Non-toxic | –
20 | – | – | O=C(Nc1ncc(Br)s1)c1ccccc1O | Non-toxic | –
21 | 5.2 (≈ 16.6 µM) | 9.3 µg/mL (≈ 29.7 µM) | Cc1ccc(C(=O)Nc2ncc(Br)s2)c(O)c1 | Non-toxic | –
22 | – | – | Cc1nc(NC(=O)c2ccccc2O)sc1Br | Non-toxic | Toxic
23 | – | – | Cc1cccc(C(=O)Nc2nc(C)c(Br)s2)c1O | Non-toxic | Toxic
24 | – | – | O=C(Nc1ncc(F)s1)c1ccccc1O | Non-toxic | Toxic
25 | 6.7 (≈ 25.5 µM) | Not Active | CCCc1cnc(NC(=O)c2ccccc2O)s1 | Non-toxic | –
26 | 4.6 (≈ 12.4 µM) | Not Active | COc1cccc(C(=O)Nc2ncc(Br)s2)c1OC(C)=O | Non-toxic | –
27 | – | – | Cc1cccc(C(=O)Nc2nc(-c3ccccc3)c(Br)s2)c1O | Non-toxic | Toxic
28 | – | 0.4 µg/mL and 1 µg/mL | O=C(Nc1nc(-c2ccccc2)c(Br)s1)c1ccccc1O | Non-toxic | Toxic
29 | – | – | CC(=O)Oc1ccccc1C(=O)Nc1nnc(C(F)(F)F)s1 | Non-toxic | –
30 | 6.1 (≈ 18.4 µM) | Not Active | O=C(Nc1ncc(-c2ccccc2Cl)s1)c1ccccc1O | Non-toxic | Toxic
31 | > 10 | Not Active | O=C(Nc1ncc(C2CCCCC2)s1)c1ccccc1O | Non-toxic | –
32 | 5 (≈ 14.7 µM) | Not Active | CC(=O)Oc1ccccc1C(=O)Nc1ncc(S(C)(=O)=O)s1 | Non-toxic | –
33 | > 10 | Not Active | CCOC(=O)Cc1nnc(NC(=O)c2ccccc2OC(C)=O)s1 | Non-toxic | –
34 | – | 0.4 µg/mL and 1 µg/mL | COc1cccc(C(=O)Nc2ncc([N+](=O)[O-])s2)c1O | Non-toxic | Toxic
35 | 0.5 (≈ 1.56 µM) | 1 µg/mL (≈ 3.11 µM) | CC(=O)Oc1c(C)cccc1C(=O)Nc1ncc([N+](=O)[O-])s1 | Non-toxic | Toxic
36 | – | – | CC(=O)Oc1ccccc1C(=O)Nc1ncc([N+](=O)[O-])s1 [NITAZOXANIDE] | Non-toxic | –
